Test [1] can be described thus: Ascorbate consumption experiment (ROS-generation capability, UV-vis). The note with it: ascorbic acid 100 µM, complex 2 µM, 50 mM NaCl/5 mM TRIS-HCl pH 7.2, max 5% DMSO, UV-vis at 265 nm. The method, then:
All the spectra were recorded at room temperature either on an Agilent HP 8453, a Varian Cary 50 Bio, a Varian Cary 60 Bio or a Perkin Elmer Lambda 650 spectrophotometer, using 1 cm quart-cuvettes. Ascorbate consumption experiments were monitored by UV-vis at the maximum absorption band of the ascorbic acid (100 µM) at 265 nm for about 45 min. CuCl2 and the assayed complexes C1-C3 were added at a final concentration of 2 µM in 50 mM NaCl/5 mM TRIS-HCl buffer (pH 7.2), with a maximum of 5% of DMSO.
Prior to biological evaluation, and after proving that the new C2-C5 Cu(II) complexes hold the same metallic core as C1, the impact of the ligand substituents on their catalytic properties, and therefore, ROS-generating capabilities ([Peña et al., 2021]), were confirmed with the two simplest functionalized Cu(II) compounds (C2 and C3), as model compounds bearing oppositely-charged functional moieties. The consumption of ascorbate was measured by UV-vis spectroscopy, monitoring its characteristic absorbance at 265 nm. The correlation of ascorbate consumption with the generation of ROS has proven to be a reliable method to effectively monitor ROS production ([Alies et al., 2013]; [Chassaing et al., 2013]).

Test [2] deals with HeLa cells. Briefly: Cell-viability assay (PrestoBlue). The following applies: 24 h treatment, normalized for Cu concentration, mean ± SD, N ≥ 3. The format is cell-based, Human. Here is the method: (§1) Human cancer cells (cervix: HeLa; and breast: MCF7) were obtained from American Type Culture Collection (ATCC, Manassas, VA, United States). Cells were routinely cultured with DMEM (Dulbecco’s modified Eagle’s medium, Invitrogen) for HeLa, and with DMEM/F-12 (Dulbecco’s MEM/Nutrient Mixture F-12 Ham, Invitrogen) for MCF7, both supplemented with 10% heat-inactivated fetal bovine serum (FBS, Invitrogen) at 37°C in a humidified 5% CO2 atmosphere.
(§2) HeLa and MFC7 cells were seeded into a 96-well plate at a cell density of 3·10^3 cells/well in 100 µL of culture medium and allowed to grow overnight. The next day, the C1-C5 complexes were added to cells at a range concentration of 0–200 μM. […] The growth inhibitory effect of the complexes was measured at 24 h using the PrestoBlue Cell Reagent (Life Technologies) assay. […] After 2 h incubation (37°C, 5% CO2), the fluorescence of each well was measured at 572 nm after excitation at 531 nm with a Microplate Reader Victor3 (Perkin Elmer). Cytotoxicity was evaluated by relative cell viability (%) for each sample related to the control well. The IC50 values were calculated from the obtained cell viability results. […] Cells were allowed then to evolve until a total incubation time of 72 h and the cell viability was measured with PrestoBlue®, as beforehand detailed.

Test [3] has as its system MCF7 cells. Put plainly: Cell-viability assay (PrestoBlue). The format is cell-based, Human. The note with it: MCF7, 24 h treatment, normalized for Cu concentration, mean ± SD, N ≥ 3. The method, then:
as §1, §2

Each structure is given as a SMILES string. Some results are limits rather than exact numbers.

On to `[Cl][Cu][Cl]` [CuCl2, copper(II) chloride], for which, in test [1], the “Time to (almost) total ascorbate consumption” value is given as roughly 20 min. Further, the IC50 in test [2] and in test [3] was no less than 200 µM throughout.

One may read the IC50 as the concentration needed to halve the response being measured. Lower therefore signals greater potency in that assay.

The values are drawn from article PMC9714576, “Cell-penetrating peptide-conjugated copper complexes for redox-mediated anticancer therapy” (Frontiers in Pharmacology, 2022).
